Common to all, as to assay type: cell-based
What all share (details): single active

Assay [1] deals with Botrytis cinerea. The assay is described as follows: Activity against the grey mold Botrytis cinerea in the microtiterplate test (Botrci).
For assay [2], the system named is Septoria tritici. Briefly: Activity against leaf blotch on wheat caused by Septoria tritici (Septtr), microtiter plate.
In assay [3] the test system is Phytophthora infestans.
For assay [4], the system named is Pyricularia oryzae.
Setting [5] is: 4 ppm, 405 nm, 7 days after inoculation.
[6] abbreviates: 63 ppm, 405 nm, 7 days after inoculation.

Where two headings read alike, the source gives them in different places.

Take `Fc1ccc([C@]2(Cn3cncn3)O[C@H]2c2ccccc2Cl)cc1` (racemic) [Epoxiconazol, (2RS,3SR)-1-[3-(2-chlorophenyl)-2,3-epoxy-2-(4-fluorophenyl)propyl]-1H-1,2,4-triazole]: the Observed efficacy in assay [1] (0.063 ppm, 7 days) amounted to 3%; in assay [2] (0.063 ppm, 7 days), 68%.

`CC(C)OC(=O)N[C@H](C(=O)N[C@H](C)c1nc2ccc(F)cc2s1)C(C)C` [Benthivalicarb, isopropyl {(S)-1-[(1R)-1-(6-fluorobenzothiazol-2-yl)-ethylcarbamoyl]-2-methylpropyl}carbamate]: in assay [3] (0.063 ppm, 7 days), the Observed efficacy stood at 65%.

For `N#CN=S1(=O)CCCC1Cc1ccc(Cl)nc1` (centres unmarked) [C.I.5], the Observed efficacy is on record as 0% in assay [1] (16 ppm, 7 days); 0% in assay [2] (0.25 ppm, 7 days); 2% in assay [2] (setting [5]); 0% in assay [3] (1 ppm, 7 days); 3% in assay [4] (16 ppm, 7 days).

For the compound `CC(c1ccc(C(F)(F)F)nc1)S(C)(=O)=NC#N` (centres unmarked) [C.I.10], the Observed efficacy in assay [1] (4 ppm, 7 days) was found to be 3%; in assay [2] (1 ppm, 7 days) it was 0%; in assay [2] (setting [5]), 2%; in assay [3] (1 ppm, 7 days) it was 0%.

With `CCNC(=O)NC(=O)C(C#N)=NOC` [Cymoxanil, 1-(2-cyano-2-methoxyiminoacetyl)-3-ethylurea], the Observed efficacy in assay [1] (setting [6]) is on record as 17%; in assay [3] (0.25 ppm, 405 nm, 7 days after inoculation) it was 32%; in assay [4] (setting [6]) it was 8%.

`N#Cc1sc2c(=O)c3ccccc3c(=O)c=2sc1C#N` [Dithianon, 5,10-dioxo-5,10-dihydronaphtho[2,3-b][1,4]dithiin-2,3-dicarbonitrile] came in with an Observed efficacy in assay [1] (0.25 ppm, 7 days) of 12%.

The compound `CO/N=C(/C1=NOCCO1)c1ccccc1Oc1ncnc(Oc2ccccc2Cl)c1F` [Fluoxastrobin, (E)-{2-[6-(2-chlorophenoxy)-5-fluoropyrimidin-4-yloxy]phenyl}(5,6-dihydro-1,4,2-dioxazin-3-yl)methanone O-methyloxime] registered an Observed efficacy in assay [2] (0.016 ppm, 7 days) of 15%.

In assay [2] (0.063 ppm, 7 days), `COC=C(C(=O)OC)c1ccccc1COc1cccc(C(F)(F)F)n1` [Picoxystrobin, methyl 3-methoxy-2-[2-(6-trifluoromethylpyridin-2-yloxymethyl)phenyl]acrylate] registered an Observed efficacy of 63%.

`Fc1ccc(Oc2ccnc3cc(Cl)cc(Cl)c23)cc1` [Quinoxyfen, 5,7-dichloro-4-(4-fluorophenoxy)quinoline]: the Observed efficacy in assay [4] (16 ppm, 7 days) turned out to be 4%.

With `CC(C)(C)C(O)(CCc1ccc(Cl)cc1)Cn1cncn1` (centres unmarked) [Tebuconazol, 1-(4-chlorophenyl)-4,4-dimethyl-3-[1,2,4]triazol-1-ylmethylpentan-3-ol], the Observed efficacy in assay [2] (0.25 ppm, 7 days) stood at 67%.
